In US20250197403A1, “HETEROARYL COMPOUNDS FOR TREATMENT OF COMPLEMENT FACTOR D MEDIATED DISORDERS” (Achillion Pharmaceuticals, Inc., priority 2020, published 2025) one finds IC50 data, which are given here for 20 compounds.

Human Factor D, sequence (P00746 26-253): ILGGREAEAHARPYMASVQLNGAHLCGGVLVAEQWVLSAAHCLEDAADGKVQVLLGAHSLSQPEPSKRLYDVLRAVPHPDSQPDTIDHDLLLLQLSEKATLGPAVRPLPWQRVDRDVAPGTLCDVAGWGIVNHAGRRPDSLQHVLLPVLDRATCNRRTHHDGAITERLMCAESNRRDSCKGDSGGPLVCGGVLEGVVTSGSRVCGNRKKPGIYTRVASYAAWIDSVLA

The assay concerns the target Human Factor D (Homo sapiens (Human), UniProt P00746). Nature of the assay: Human Factor D Assay. The conditions noted are these: Human Factor D 80 nM, substrate Z-L-Lys-SBzl, assay according to Example 3. It is filed as biochemical. On the procedure: The assay according to Example 3 was used to determine the IC50's of the compounds. Other standard factor D inhibition assays are also available.
Human Factor D (purified from human serum, Complement Technology, Inc.) at 80 nM final concentration is incubated with test compound at various concentrations for 5 min at room temperature in 50 mM Tris, 1M NaCl, pH 7.5. A synthetic substrate Z-L-Lys-SBzl and DTNB (Ellman's reagent) are added to final concentrations of 100 μM each. Absorbance at 405 nm (A405) is recorded at 30 second intervals for 30 min using a microplate spectrophotometer. IC50 values are calculated by nonlinear regression of complement Factor D reaction rates as a function of test compound concentration.
As to `CC(=O)c1cn(CC(=O)N2C[C@H]3C[C@H]3[C@H]2C(=O)N[C@@H](C)C(F)=C(C)C)c2c(C)cc(-c3cnc4cc(C)nn4c3)cc12` [Compound 38, (1R,2S,5S)-3-(2-(3-acetyl-7-methyl-5-(2-methylpyr-azolo[1,5-a]pyrimidin-6-yl)-1H-indol-1-yl)acetyl)-N-((S)-3-fluoro-4-methyl-pent-3-en-2-yl)-3-azabi-cyclo[3.1.0]hexane-2-car-boxamide], the IC50 was less than 1000 nM.

As for `CC(=O)c1cn(CC(=O)N2[C@H](C(=O)N[C@@H](C)C(F)=C(C)C)C[C@@]3(C)C[C@@H]23)c2c(C)nc(-c3cnc(C)nc3)cc12` [Compound 39, (1R,3S,5R)-2-(2-(3-acetyl-7-methyl-5-(2-methylpyr-imidin-5-yl)-1H-pyrrolo [2,3-c]pyridin-1-yl)acetyl)-N-((S)-3-fluoro-4-methyl-pent-3-en-2-yl)-5-methyl-2-azabicyclo[3.1.0]hexane-3-carboxamide], the IC50 was less than 1000 nM.

For the compound `CC(=O)c1cn(CC(=O)N2[C@H](C(=O)N[C@@H](C)C(F)=C(C)C)C[C@@]3(C)C[C@@H]23)c2c(C)cc(-c3cnc(C)nc3)cc12` [Compound 31, (1R,3S,5R)-2-(2-(3-acetyl-7-methyl-5-(2-methylpyr-imidin-5-yl)-1H-indol-1-yl)acetyl)-N-((S)-3-fluoro-4-methylpent-3-en-2-yl)-5-methyl-2-azabicyclo[3.1.0] hexane-3-carboxamide], the IC50 is less than 1000 nM.

Turning to `CC(=O)c1cn(CC(=O)N2[C@H](C(=O)Nc3nc(C(F)(F)F)ccc3Cl)C[C@@]3(C)C[C@@H]23)c2c(C)cc(-c3ccc4nc(C)nn4c3)cc12` [Compound 3, (1R,3S,5R)-2-(2-(3-acetyl-7-methyl-5-(2-methyl-[1,2,4]triazolo[1,5-a]pyr-idin-6-yl)-1H-indol-1-yl)-acetyl)-N-(3-chloro-6-(tri-fluoromethyl)pyridin-2-yl)-5-methyl-2-azabicyclo-[3.1.0]hexane-3-carbox-amide], the IC50 is less than 1000 nM.

The compound `COCc1ccc(C(F)(F)F)nc1NC(=O)[C@@H]1C[C@@]2(C)C[C@H]2N1C(=O)Cn1cc(C(C)=O)c2cc(-c3cnc(C)nc3)cc(C)c21` [Compound 52, (1R,3S,5R)-2-(2-(3-acetyl-7-methyl-5-(2-methylpyr-imidin-5-yl)-1H-indol-1-yl)acetyl)-N-(3-(methoxy-methyl)-6-(trifluorometh-yl)pyridin-2-yl)-5-methyl-2-azabicyclo[3.1.0]hexane-3-carboxamide] registered an IC50 of less than 1000 nM.

Take `CC(=O)c1nn(CC(=O)N(C)[C@@H](C)C(=O)Nc2nc(Br)ccc2C)c2cc3c(cc12)-c1cnc(C)nc1C=CC3` [Compound 110, (S)-2-(2-(11-acetyl-3-methylpyrimido[4′,5′:6,7]cyclohepta[1,2-f]indazol-9(7H)-yl)-N-methylacetamido)-N-(6-bromo-3-methylpyridin-2-yl)propanamide]: the IC50 is less than 1000 nM.

For `CC(=O)c1cn(CC(=O)N2[C@H](C(=O)Nc3ccn(CC(F)(F)F)n3)C[C@@]3(C)C[C@@H]23)c2c(C)cc(-c3cnc4cc(C)nn4c3)cc12` [Compound 64, (1R,3S,5R)-2-(2-(3-acetyl-7-methyl-5-(2-methylpyr-azolo[1,5-a]pyrimidin-6-yl)-1H-indol-1-yl)acetyl)-5-methyl-N-(1-(2,2,2-tri-fluoroethyl)-1H-pyrazol-3-yl)-2-azabicyclo[3.1.0] hexane-3-carboxamide], the IC50 is less than 1000 nM.

As for `CC(=O)c1cn(CC(=O)N2[C@H](C(=O)Nc3nc(Br)ccc3Cl)C[C@@]3(C)C[C@@H]23)c2c(C)cc(-c3cnc4cc(C)nn4c3)cc12` [Compound 47, (1R,3S,5R)-2-(2-(3-acetyl-7-methyl-5-(2-methylpyr-azolo[1,5-a]pyrimidin-6-yl)-1H-indol-1-yl)acetyl)-N-(6-bromo-3-chloropyr-idin-2-yl)-5-methyl-2-aza-bicyclo[3.1.0]hexane-3-carboxamide], the IC50 is less than 1000 nM.

In turn, `CC(=O)c1cn(CC(=O)N2[C@H](C(=O)N[C@H](C)C(F)=C(C)C)C[C@@]3(C)C[C@@H]23)c2c(C)cc(-c3cnc(C)nc3)cc12` [Compound 28, (1R,3S,5R)-2-(2-(3-acetyl-7-methyl-5-(2-methylpyr-imidin-5-yl)-1H-indol-1-yl)acetyl)-N-((R)-3-fluoro-4-methylpent-3-en-2-yl)-5-methyl-2-azabicyclo[3.1.0] hexane-3-carboxamide] registered an IC50 of less than 1000 nM.

`CC(=O)c1cn(CC(=O)N2C[C@@](F)(CF)C[C@H]2C(=O)Nc2nc(C(F)(F)F)ccc2C)c2c(C)nc(-c3cnc4cc(C)nn4c3)cc12` [Compound 25, (2S,4R)-1-(2-(3-acetyl-7-methyl-5-(2-methylpyr-azolo[1,5-a]pyrimidin-6-yl)-1H-pyrrolo[2,3-c]pyr-idin-1-yl)acetyl)-4-fluoro-4-(fluoromethyl)-N-(3-methyl-6-(trifluorometh-yl)pyridin-2-yl)pyrroli-dine-2-carboxamide] showed an IC50 of less than 1000 nM.

Turning to `[2H]C([2H])([2H])OCc1ccc(C(F)(F)F)nc1NC(=O)[C@@H]1C[C@@]2(C)C[C@H]2N1C(=O)Cn1cc(C(C)=O)c2cc(-c3ccc4nc(C)nn4c3)cc(C)c21` [Compound 81, (1R,3S,5R)-2-(2-(3-acetyl-7-methyl-5-(2-methyl-[1,2,4]triazolo[1,5-a]pyr-idin-6-yl)-1H-indol-1-yl)-acetyl)-N-(3-((methoxy-d3)methyl-d2)-6-(trifluoro-methyl)pyridin-2-yl)-5-methyl-2-azabicyclo[3.1.0] hexane-3-carboxamide], the IC50 was less than 1000 nM.

`CC(=O)c1cn(CC(=O)N2[C@H](C(=O)Nc3nc(Br)ccc3C)C[C@@]3(C)C[C@@H]23)c2cc3c(cc12)NC1(COC1)CO3` [Compound 20, (1R,3S,5R)-2-(2-(8′-acetyl-1′H-spiro[oxetane-3,2′-[1,4]oxazino[3,2-f]indol]-6′(3′H)-yl)acetyl)-N-(6-bromo-3-methylpyridin-2-yl)-5-methyl-2-azabicyclo [3.1.0]hexane-3-carbox-amide] registered an IC50 of less than 1000 nM.

Compound `CC(=O)c1cn(CC(=O)N2[C@H](C(=O)Nc3nc(Br)ccc3C)C[C@@]3(C)C[C@@H]23)c2c(C)c(F)c(-c3cnc4cc(C)nn4c3)cc12` [Compound 50, (1R,3S,5R)-2-(2-(3-acetyl-6-fluoro-7-methyl-5-(2-methylpyrazolo[1,5-a]pyr-imidin-6-yl)-1H-indol-1-yl)acetyl)-N-(6-bromo-3-methylpyridin-2-yl)-5-methyl-2-zabicyclo[3.1.0] hexane-3-carboxamide] gave an IC50 of less than 1000 nM.

In turn, `CC(=O)c1cn(CC(=O)N2C[C@H](F)C[C@H]2C(=O)Nc2ccn(CC(F)(F)F)n2)c2ccc(-c3cnc4cc(C)nn4c3)cc12` [Compound 67, (2S,4R)-1-(2-(3-acetyl-5-(2-methylpyrazolo[1,5-a]pyrimidin-6-yl)-1H-indol-1-yl)acetyl)-4-fluoro-N-(1-(2,2,2-trifluoroethyl)-1H-pyrazol-3-yl)pyrrolidine-2-carboxamide] showed an IC50 of less than 1000 nM.

`CC(=O)c1cn(CC(=O)N2[C@H](C(=O)Nc3cncc(C(F)(F)F)n3)C[C@@]3(C)C[C@@H]23)c2c(C)cc(-c3cnc(C)nc3)cc12` [Compound 45, (1R,3S,5R)-2-(2-(3-acetyl-7-methyl-5-(2-methylpyr-imidin-5-yl)-1H-indol-1-yl)acetyl)-5-methyl-N-(6-(trifluoromethyl)pyrazin-2-yl)-2-azabicyclo[3.1.0] hexane-3-carboxamide] showed an IC50 of less than 1000 nM.

For the compound `CC(=O)c1cn(CC(=O)N2[C@H](C(=O)Nc3nc(C(F)(F)F)ccc3C)C[C@@]3(C)C[C@@H]23)c2c(CF)cc(-c3cnc4cc(C)nn4c3)cc12` [Compound 46, (1R,3S,5R)-2-(2-(3-acetyl-7-(fluoromethyl)-5-(2-methylpyrazolo[1,5-a]pyr-imidin-6-yl)-1H-indol-1-yl)acetyl)-5-methyl-N-(3-methyl-6-(trifluorometh-yl)pyridin-2-yl)-2-azabi-cyclo[3.1.0]hexane-3-car-boxamide], the IC50 was less than 1000 nM.

With `CC(=O)c1cn(CC(=O)N2C[C@H]3C[C@H]3[C@H]2C(=O)Nc2nc(C(F)(F)F)ccc2Cl)c2c(C)cc(-c3cnc4cc(C)nn4c3)cc12` [Compound 6, (1R,2S,5S)-3-(2-(3-acetyl-7-methyl-5-(2-methylpyr-azolo[1,5-a]pyrimidin-6-yl)-1H-indol-1-yl)acetyl)-N-(3-chloro-6-(trifluoro-methyl)pyridin-2-yl)-3-azabicyclo[3.1.0]hexane-2-carboxamide], the IC50 is less than 1000 nM.

`CC(=O)c1cn(CC(=O)N2[C@H](C(=O)Nc3nc(C(F)(F)F)c(F)cc3C)C[C@@]3(C)C[C@@H]23)c2c(C)cc(-c3cnc(C)nc3)cc12` [Compound 71, (1R,3S,5R)-2-(2-(3-acetyl-7-methyl-5-(2-methylpyr-imidin-5-yl)-1H-indol-1-yl)acetyl)-N-(5-fluoro-3-methyl-6-(trifluorometh-yl)pyridin-2-yl)-5-methyl-2-azabicyclo[3.1.0]hexane-3-carboxamide] gave a concentration for half-maximal inhibition (IC50) of less than 1000 nM.

As for `CC(=O)c1cn(CC(=O)N2[C@H](C(=O)Nc3nc(C(F)(F)F)ncc3C)C[C@@]3(C)C[C@@H]23)c2c(C)cc(-c3cnc(C)nc3)cc12` [Compound 57, (1R,3S,5R)-2-(2-(3-acetyl-7-methyl-5-(2-methylpyr-imidin-5-yl)-1H-indol-1-yl)acetyl)-5-methyl-N-(5-methyl-2-(trifluorometh-yl)pyrimidin-4-yl)-2-aza-bicyclo[3.1.0]hexane-3-carboxamide], the IC50 was less than 1000 nM.

In the case of `CC(=O)c1cn(CC(=O)N2[C@H](C(=O)Nc3nc(Br)ccc3Cl)C[C@@]3(C)C[C@@H]23)c2c(C)cc(-c3cnc(C)nc3)cc12` [Compound 68, (1R,3S,5R)-2-(2-(3-acetyl-7-methyl-5-(2-methylpyr-imidin-5-yl)-1H-indol-1-yl)acetyl)-N-(6-bromo-3-chloropyridin-2-yl)-5-methyl-2-azabicyclo[3.1.0] hexane-3-carboxamide], the IC50 is less than 1000 nM.
